Laboratory results as given in US11155530B2, “Urea-oxaziridines” (The Regents of the University of California, priority 2018, dated 2021).

Assay: Stability of redox conjugation product-sulfimide
Format: physicochemical
Conditions: salt form formed from S3 under strong acidic condition (1 N HCl); co-solvent d-MeOD/D2O=1:1; monitored by NMR after 1 h and 18 h
Protocol: The stability of sulfimides were tested by treatment of sulfimides S2 with 5 mM TCEP or treatment of sulfimides S3 with 1 N HCl, 1 N NaOH or 80° C. in co-solvent (d-MeOD/D2O=1:1). The reactions were monitored by NMR after 1 h and 18 h and the reaction conversions were calculated based on NMR data. Sulfimide S3 can be protonated under strong acidic condition to its salt form S4, which is stable in aqueous solution.

- stability in aqueous solution: stable
Structure (SMILES): CCNC(=O)N[S+](C)c1ccccc1.[Cl-] (stereo not shown) [Compound S4]
